Tests used:
[1] = Release (dissolution) profile of tablets, USP Apparatus 1 (baskets); type: physicochemical; details: for mean value (n = 6) of % of Compound 1 released: tablet, 25 mg Methocel K100 Premium LVCR
Source text: USP Apparatus 1 (BASKETS) is described, for example, in the United States Pharmacopeial Convention, Feb. 1, 2012, Chapter <711> (“Dissolution”), incorporated by reference herein in its entirety. See http://www.usp.org/sites/default/files/usp_pdf/EN/USPNF/revisions/m99470-gc_711.pdf. The USP Apparatus 1 (baskets) assembly consists of the following: a vessel, which may be covered, made of glass or other inert, transparent material; a motor; a metallic drive shaft; and a cylindrical basket. The materials should not sorb, react, or interfere with the specimen being tested. The vessel is partially immersed in a suitable water bath of any convenient size or heated by a suitable device such as a heating jacket. The water bath or heating device permits holding the temperature inside the vessel at 37±0.5° during the test and keeping the bath fluid in constant, smooth motion. No part of the assembly, including the environment in which the assembly is placed, contributes significant motion, agitation, or vibration beyond that due to the smoothly rotating stirring element. An apparatus that permits observation of the specimen and stirring element during the test is preferable. The vessel is cylindrical, with a hemispherical bottom and with one of the following dimensions and capacities: for a nominal capacity of 1 L, the height is 160 mm to 210 mm and its inside diameter is 98 mm to 106 mm; for a nominal capacity of 2 L, the height is 280 mm to 300 mm and its inside diameter is 98 mm to 106 mm; and for a nominal capacity of 4 L, the height is 280 mm to 300 mm and its inside diameter is 145 mm to 155 mm. Its sides are flanged at the top. A fitted cover may be used to retard evaporation. If a cover is used, it provides sufficient openings to allow ready insertion of the thermometer and withdrawal of specimens. The shaft is positioned so that its axis is not more than 2 mm at any point from the vertical axis of the vessel and rotates smoothly and without significant wobble that could affect the results. The vertical center line of the blade passes through the axis of the shaft so that the bottom of the blade is flush with the bottom of the shaft. A distance of 25 f 2 mm between the bottom of the blade and the inside bottom of the vessel is maintained during the test. The metallic or suitably inert, rigid blade and shaft comprise a single entity. A suitable two-part detachable design may be used provided the assembly remains firmly engaged during the test.
A speed-regulating device is used that allows the shaft rotation speed to be selected and maintained at the specified rate within +4%. Shaft and basket components of the stirring element are fabricated of stainless steel, type 316, or other inert material. A basket having a gold coating of about 0.0001 inch (2.5 μm) thick may be used. A dosage unit is placed in a dry basket at the beginning of each test. The distance between the inside bottom of the vessel and the bottom of the basket is maintained at 25±2 mm during the test.
The release profiles for modified-release tablets were measured using USP Apparatus 1 (baskets).
All release profiles disclosed in Tables 6a-6d were measured with USP Apparatus 1 (baskets) at 100 rpm in 500 mL of aqueous sodium phosphate at a concentration of 0.05 M (pH=6.8). The values in a given table relate to tablets obtained from the same batch. Values shown represent mean values over a number of dissolution tests (“n” in each table) in each case.

[2] = Open-label multiple-dose escalation pharmacokinetic study in fasted or fed healthy subjects (Example 7 B); type: in vivo, human
Procedure: B. A second open-label, non-randomized pharmacokinetic study was conducted in healthy subjects. Fasted (cohort 1; n=19) or fed state (cohort 2, n=18) subjects received a modified-release tablet formulation of Compound 1 in a dose escalation sequence over 25 days ([…], depending upon individual subject tolerability, […]).
Two cohorts were enrolled to ensure data in 12 evaluable subjects per cohort. […]

[3] = modified-release tablet once daily

O=C(O)COC[C@H]1CC[C@H](COC(=O)N(c2ccccc2)c2ccc(Cl)cc2)CC1 [Compound 1, 2-(((1r,4r)-4-(((4-chlorophenyl)(phenyl)carbamoyloxy)methyl)cyclohexyl)methoxy)acetic acid]
release rate of tablets relative to modified-release capsule ([1]; 0.5 mg tablet with 40% HPMC K4M CR): faster | mean value (n = 6) of % of Compound 1 released ([1]; Table 6a: initial release profile, 0.05 mg Compound 1, 25 mg Methocel K4M Premium CR, 60 min): 6.9% | mean value (n = 6) of % of Compound 1 released ([1]; Table 6a: initial release profile, 0.05 mg Compound 1, 25 mg Methocel K4M Premium CR, 120 min): 25.3% | mean value (n = 6) of % of Compound 1 released ([1]; Table 6a: initial release profile, 0.05 mg Compound 1, 25 mg Methocel K4M Premium CR, 180 min): 35.8% | mean value (n = 6) of % of Compound 1 released ([1]; Table 6a: initial release profile, 0.05 mg Compound 1, 25 mg Methocel K4M Premium CR, 240 min): 45.1% | mean value (n = 6) of % of Compound 1 released ([1]; Table 6a: initial release profile, 0.05 mg Compound 1, 25 mg Methocel K4M Premium CR, 360 min): 62% | mean value (n = 6) of % of Compound 1 released ([1]; Table 6a: initial release profile, 0.05 mg Compound 1, 25 mg Methocel K4M Premium CR, 480 min): 74.8% | mean value (n = 6) of % of Compound 1 released ([1]; Table 6a: initial release profile, 0.05 mg Compound 1, 25 mg Methocel K4M Premium CR, 600 min): 86.6% | mean value (n = 6) of % of Compound 1 released ([1]; Table 6a: initial release profile, 0.05 mg Compound 1, 25 mg Methocel K4M Premium CR, 840 min): 100.4% | mean value (n = 6) of % of Compound 1 released ([1]; Table 6b: initial release profile, 0.5 mg Compound 1, 25 mg Methocel K4M Premium CR, 60 min): 17.9% | mean value (n = 6) of % of Compound 1 released ([1]; Table 6b: initial release profile, 0.5 mg Compound 1, 25 mg Methocel K4M Premium CR, 120 min): 27.3% | mean value (n = 6) of % of Compound 1 released ([1]; Table 6b: initial release profile, 0.5 mg Compound 1, 25 mg Methocel K4M Premium CR, 180 min): 36.9% | mean value (n = 6) of % of Compound 1 released ([1]; Table 6b: initial release profile, 0.5 mg Compound 1, 25 mg Methocel K4M Premium CR, 240 min): 45.5% | mean value (n = 6) of % of Compound 1 released ([1]; Table 6b: initial release profile, 0.5 mg Compound 1, 25 mg Methocel K4M Premium CR, 360 min): 61.1% | mean value (n = 6) of % of Compound 1 released ([1]; Table 6b: initial release profile, 0.5 mg Compound 1, 25 mg Methocel K4M Premium CR, 480 min): 74.2% | mean value (n = 6) of % of Compound 1 released ([1]; Table 6b: initial release profile, 0.5 mg Compound 1, 25 mg Methocel K4M Premium CR, 600 min): 84.8% | mean value (n = 6) of % of Compound 1 released ([1]; Table 6b: initial release profile, 0.5 mg Compound 1, 25 mg Methocel K4M Premium CR, 840 min): 98.1% | mean value (n = 6) of % of Compound 1 released ([1]; Table 6c: after storage at 40° C. and 75% RH for 6 months, 0.05 mg Compound 1, 25 mg Methocel K4M Premium CR, 60 min): 17% | mean value (n = 6) of % of Compound 1 released ([1]; Table 6c: after storage at 40° C. and 75% RH for 6 months, 0.05 mg Compound 1, 25 mg Methocel K4M Premium CR, 120 min): 27.1% | mean value (n = 6) of % of Compound 1 released ([1]; Table 6c: after storage at 40° C. and 75% RH for 6 months, 0.05 mg Compound 1, 25 mg Methocel K4M Premium CR, 180 min): 36.9% | mean value (n = 6) of % of Compound 1 released ([1]; Table 6c: after storage at 40° C. and 75% RH for 6 months, 0.05 mg Compound 1, 25 mg Methocel K4M Premium CR, 240 min): 45.4% | mean value (n = 6) of % of Compound 1 released ([1]; Table 6c: after storage at 40° C. and 75% RH for 6 months, 0.05 mg Compound 1, 25 mg Methocel K4M Premium CR, 360 min): 61.1% | mean value (n = 6) of % of Compound 1 released ([1]; Table 6c: after storage at 40° C. and 75% RH for 6 months, 0.05 mg Compound 1, 25 mg Methocel K4M Premium CR, 480 min): 75.8% | mean value (n = 6) of % of Compound 1 released ([1]; Table 6c: after storage at 40° C. and 75% RH for 6 months, 0.05 mg Compound 1, 25 mg Methocel K4M Premium CR, 600 min): 86.9% | mean value (n = 6) of % of Compound 1 released ([1]; Table 6c: after storage at 40° C. and 75% RH for 6 months, 0.05 mg Compound 1, 25 mg Methocel K4M Premium CR, 840 min): 100% | mean value (n = 6) of % of Compound 1 released ([1]; Table 6d: after storage at 40° C. and 75% RH for 6 months, 0.5 mg Compound 1, 25 mg Methocel K4M Premium CR, 60 min): 6.8% | mean value (n = 6) of % of Compound 1 released ([1]; Table 6d: after storage at 40° C. and 75% RH for 6 months, 0.5 mg Compound 1, 25 mg Methocel K4M Premium CR, 120 min): 24.3% | mean value (n = 6) of % of Compound 1 released ([1]; Table 6d: after storage at 40° C. and 75% RH for 6 months, 0.5 mg Compound 1, 25 mg Methocel K4M Premium CR, 180 min): 33% | mean value (n = 6) of % of Compound 1 released ([1]; Table 6d: after storage at 40° C. and 75% RH for 6 months, 0.5 mg Compound 1, 25 mg Methocel K4M Premium CR, 240 min): 41.3% | mean value (n = 6) of % of Compound 1 released ([1]; Table 6d: after storage at 40° C. and 75% RH for 6 months, 0.5 mg Compound 1, 25 mg Methocel K4M Premium CR, 360 min): 55.5% | mean value (n = 6) of % of Compound 1 released ([1]; Table 6d: after storage at 40° C. and 75% RH for 6 months, 0.5 mg Compound 1, 25 mg Methocel K4M Premium CR, 480 min): 67.9% | mean value (n = 6) of % of Compound 1 released ([1]; Table 6d: after storage at 40° C. and 75% RH for 6 months, 0.5 mg Compound 1, 25 mg Methocel K4M Premium CR, 600 min): 79.4% | mean value (n = 6) of % of Compound 1 released ([1]; Table 6d: after storage at 40° C. and 75% RH for 6 months, 0.5 mg Compound 1, 25 mg Methocel K4M Premium CR, 840 min): 94.7% | change of release profile following storage over time ([1]; modified-release tablets (FIGS. 12-14), storage at 40° C. and 75% RH for six months): did not change significantly | release rate of tablets relative to modified-release capsule ([1]; tablet with 30% HPMC K4M and 20% HPMC K100 LVCR): slightly faster | release rate of tablets relative to modified-release capsule ([1]; tablet with 40% HPMC K4M and 10% HPMC K100 LVCR, time points <6 hrs): faster | release rate of tablets relative to modified-release capsule ([1]; tablet with 40% HPMC K4M and 10% HPMC K100 LVCR, time points ≥6 hrs): slower | difference of percentage by weight of compound released, initial vs after storage ([1]; tablets 0.05 mg and 0.5 mg (FIGS. 12 and 13), storage at 40° C. and 75% RH for six months, any time point equal to or greater than 2 hours): ≤ 10% | accumulation index (AUC(0-24)) ([2]; 5 days of dosing at 0.60 mg, both fed and fasted state): approximately 2.1 fold | exposure in fed vs fasted state ([2]; after single administration and at steady state): similar | differences in AUC(0-24) at steady state, female vs male subjects [2, 3]: did not indicate a significant increase | increase of Cmax at steady state in female vs male subjects [2, 3]: greater than 42% | mean plasma exposure measures in females compared to males [2, 3]: Somewhat higher | plasma exposure measures vs dose ([2]; modified-release tablet once daily, 0.06 to 0.3 mg): Dose-dependent | peak-trough fluctuation ([2]; modified-release tablet once daily, across dose levels): low | effect of food on plasma exposure ([2]; modified-release tablet once daily, fed vs fasted, across dose levels): little effect of food | Tmax in the fed state ([2]; modified-release tablet, fed vs fasted): delayed

— US12433865B2, “Compositions comprising PGI2-receptor agonists and processes for the preparation thereof” (Arena Pharmaceuticals, Inc., priority 2018, dated 2025)
